Experimental data published in patent publication EP4303307A1, “METHOD FOR PRODUCING FLAVOURS USING O-METHYLTRANSFERASE FROM PLEUROTUS” (Justus-Liebig-Universität Gießen Rechtsabteilung, priority 2022, dated 2024).

Assays:
Type in all cases: biochemical, P. sapidus
O-Methyltransferase [1] = experiment: Enzymatic conversion of the thiol substrate, product detected by GC-MS; details: compared with blanks (chemical and chemical-biological)
Text: Durch die Umsetzung von 2-Methyl-3-furanthiol als Substrat mit O-Methyltransferase wird beispielhaft das breite, Substanzklassen-übergreifende, Substratspektrum der O-Methyltransferase gezeigt. Neben den unter 6. aufgeführten Substraten werden beispielhaft auch Umsetzungen unter Verwendung von 2-Methyl-3-furanthiol durchgeführt.

O-Methyltransferase [2] = experiment: Enzymatic methylation of further substrates, conversion rates (Table 2); details: 34 °C, 500 µM educt, phosphate buffer pH 7,4 (100 mM), 24 h, without shaking; for Produktkonzentration: concentration of the methylated product
Method: In Tabelle 2 sind die Umsetzungsraten weiterer Ausführungsbeispiele zusammengestellt, wobei die Reaktionsbedingungen für die Umsetzungen in Tabelle 2 beispielhaft wie folgt ausgewählt wurden: Temperatur 34 °C, jeweils 500 µM Edukt- und Produktkonzentration, Phosphatpuffer pH = 7,4 (100 mM), Reaktionsdauer: 24 h, Durchführung jeweils ohne Schütteln). Tabelle 2: Weitere beispielhaft ausgewählte Umsatzraten

O-Methyltransferase [3] = experiment: Determination of enzyme kinetic parameters (Michaelis-Menten, non-linear regression)
Text: Bekanntermaßen werden Biokatalysatoren, bzw. Enzyme wie O-Methyltransferasen, auch durch die Bestimmung ihrer jeweiligen enzymkinetischen Parameter unter definierten Bedingungen charakterisiert. Daher werden anhand eines Beispiels auch die enzymkinetischen Parameter der O-Methyltransferase bestimmt. Die Versuchsergebnisse sind in Tabelle 1 zusammengestellt. Mit dem Substrat, gegenüber dem die beispielhaft untersuchte O-Methyltransferase die höchste Aktivität aufweist, sowie dem Cofaktor werden die enzymkinetischen Parameter (Km, vmax) graphisch nach nichtlinearer Regression (Michaelis-Menten, Softwarepaket OriginPro 2020) ermittelt (vgl. Fig. 8, Fig. 8A, Fig. 8B). Zudem wird beispielhaft die katalytische Konstante (kcat) sowie die katalytische Effizienz (kcat/Km) berechnet. Die resultierenden Werte sind zusammengefasst in Tabelle 1 aufgeführt. Tabelle 1: Enzymkinetische Parameter der aus P. sapidus abgeleiteten O-Methyltransferase unter Verwendung von p-Hydroxybenzaldehyd als Substrat
Fig. 1: Korrelation der Anzahl der Transkriptionskopien und der Peakflächen (normiert auf internen Standard) von p-Anisaldehyd der DK5 und MK57 Kulturen. Fig. 2: SDS-PAGE-Gel der O-Methyltransferase (L: Lysat von E. coli, P: Protein nach Reinigung mittels FPLC) und Western Blot Membran (Anti-His-Tag Antikörper). Fig. 3: Beispielhafte Umsetzung von p-Hydroxybenzaldehyd (500 µM) und SAM (500 µM) mittels O-Methyltransferase (0,16 µM) in Davies Puffer über 2 h (jeweils im Triplikat) zur Ermittlung des pH-Optimums; bei den für die Ordinatenachse gewählten willkürlichen Einheiten handelt es sich um die gerätetypische Quantifizierung der Peakfläche von p-Anisaldehyd im Chromatogramm der jeweiligen Probe aus der betreffenden Reaktionslösung nach Abschluss der Umsetzung. Fig. 4: Beispielhafte Umsetzung von p-Hydroxybenzaldehyd (500 µM) und SAM (500 µM) mittels O-Methyltransferase (0,16 µM) in 0,1 M Phosphatpuffer über 2 h bei 24 °C (jeweils im Triplikat) zur weiteren Ermittlung des pHOptimums. […]

Structure (SMILES)	Umsetzungsrate (O-Methyltransferase [2])	Produktkonzentration (O-Methyltransferase [2])	other results
Cc1occc1S [2-Methyl-3-furanthiol]			Bildung des methylierten Produktes (O-Methyltransferase [1]): gesteigerte Bildung des methylierten Produktes
O=c1ccc2cc(O)ccc2o1 [6-Hydroxycoumarin]	2%	11,5 ± 0,3 µM	
COc1cc(C=O)ccc1O [Vanillin]	5%	23,8 ± 0,9 µM	
O=Cc1ccc(O)cc1 [p-Hydroxybenzaldehyd]			katalytische Konstante (kcat) (O-Methyltransferase [3]; calculated, p-Hydroxybenzaldehyd as substrate): 2,5 s^-1; mittlere maximale Geschwindigkeit (vmax) (O-Methyltransferase [3]; substrate with SAM (500 µM), enzyme 0,16 µM, 0,1 M phosphate buffer pH 7,4, 34 °C, 20 min): 43,7 mU mg^-1; Km (O-Methyltransferase [3]; substrate with SAM (500 µM), enzyme 0,16 µM, 0,1 M phosphate buffer pH 7,4, 34 °C, 20 min, read-out: mittlere Michaelis-Menten-Konstante (Km)): 79 µM
